Measured values taken from patent US7576129B2, “Carboxylic acid compounds” (Ono Pharmaceutical Co., Ltd., priority 2003, dated 2009).

How the values were obtained:
Type in all cases: in vivo, rat
[1] = tested on: pollakiuria model induced by sulprostone; experiment: Pollakiuria model induced by sulprostone (urination frequency); settings: male Crj: CD (SD) IGS rats, oral 3, 10, 30 and 100 mg/kg 0.5 hour before sulprostone s.c., 3 hours measurement
Protocol: A suppressive action of the compound of the present invention to a pollakiuria model induced by sulprostone was investigated as follows. Male Crj: CD (SD) IGS rats of body weight of about 300 g were used. Each of the compound of the present invention (3, 10, 30 and 100 mg/kg) and a 0.5% aqueous solution of methyl cellulose (5 mL/kg) as a control was orally administered. After 0.5 hour from oral administration of a test substance, sulprostone (0.2 mg/4 mL/kg) was subcutaneously administered. As a non-induced group, a 0.5% aqueous solution of methyl cellulose was orally administered and, after […], a physiological saline was subcutaneously administered. Measurement of urination was conducted from immediately after administration of sulprostone until 3 hours thereafter. Measurement of urination was done in such a manner that, under the condition of giving neither feed nor water, the animals were placed in a metabolic cage equipped with a urine measuring device and weight of the collected urine with a lapse of time was recorded using a data-collecting system. Incidentally, case numbers for each group were made 3 to 4 cases.

[2] = tested on: adjuvant-induced arthritis model; experiment: Pain reaction of adjuvant-induced arthritis model (squeaking reaction); settings: Lewis male rats, oral, 1, 3, 10 and 30 mg/kg, observed 1-4 hours after administration
Protocol: A suppressive effect of the compound of the present invention to pain reaction of an adjuvant-induced arthritis model which is a pain model for chronic arthritis was investigated as follows using a squeaking reaction as an index. Lewis male rats of seven weeks age were used. After volume of the left hind leg of each rat was measured, 600 μg/100 μL of dried cells of Mycobacterium butyricum (Difco) suspended in liquid paraffin was injected as an adjuvant into paw skin of a right hind leg to prepare an adjuvant-arthritis rat. After 22 days from injection of the adjuvant, bending and stretching of a knee joint of the left hind leg were conducted for five times before oral administration of a test substance and the rats which squeaked for all of the five times were subjected to the experiment. Depending upon the volume of edema of left hind leg on the previous day, grouping was conducted where one group comprised ten rats. Each of the compound of the present invention (1, 3, 10 and 30 mg/kg) and a 0.5% aqueous solution of methyl cellulose (5 mL/kg) as a control was orally administered. An analgesic action was observed after 1, 2, 3 and 4 hour(s) from the administration.

[3] = tested on: carrageenin-induced hyperalgesia model; experiment: Carrageenin-induced hyperalgesia model (escape latency, plantar test); settings: male SD rats, oral 3, 10 and 30 mg/kg 1 hour before carrageenin, 3 hours after injection
Protocol: An analgesic effect of the compound of the present invention to carrageenin-induced hyperalgesia model which was an acute inflammation pain model was investigated as follows using escape latency as an index. Male rats of an SD strain of seven weeks age were used. Thermal stimulation was irradiated to right hind leg of each rat using a measuring device for a plantar test and the time until escape raising the leg was measured and used as the escape latency. Depending upon the escape latency, grouping was conducted where each group comprised 7 to 8 rats and each of the compound of the present invention (3, 10 and 30 mg/kg) and a 0.5% aqueous solution of methyl cellulose (5 mL/kg) as a control was orally administered. After 1 hour from the oral administration of a test substance, carrageenin (2 mg/100 μL) dissolved in a physiological saline was subcutaneously injected to the sole of right hind leg of the rat. The escape latency during 3 hours after injection of carrageenin was measured.

Cc1cc(C)cc([C@@H](CC(C)C)NC(=O)c2cc(COc3cc(F)ccc3C)ccc2CCC(=O)O)c1 [compound (I), 3-(2-((((1R)-1-(3,5-dimethylphenyl)-3-methylbutyl)amino)carbonyl)-4-(5-fluoro-2-methylphenoxymethyl)phenyl)propanoic acid]
dose as from which urination frequency showed low values [1]: not more than 30 mg/kg
dose as from which individual positive for the analgesic action was noted [2]: ≤ 10 mg/kg
dose as from which escape latency was significantly high as compared with the control group [3]: not more than 10 mg/kg
